According to patent US20240287065A1, “COMPOUND AS CDK KINASE INHIBITOR AND USE THEREOF” (TYK MEDICINES (ZHENGZHOU) , INC., priority 2021, published 2024):

Legend:
CDK2/CycE1 = CDK2/CycE1 (Homo sapiens, UniProt P24941); test: Enzyme activity test; format: biochemical;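 note: values come from the source column headed CDK2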
Method: (§1) • 1. The test compounds and pabocinib were configured into a […] solution of DMSO; • 2. 20 nL of stock solution was transferred to a 384-well plate using Echo550. DMSO was used as a blank control.
(§2) • 1. according to the following table to prepare 1.3X enzyme solution containing enzyme, substrate and cofactor; • 2. 15 μL of 1.3X enzyme solution was added to each well and the mixture was incubated for 30 min at room temperature; • 3. 5 μL of ATP solution was added to initiate the reaction. The final volume of each well was 20 μL; • 4. After incubation for 150 min at room temperature, 75 μL of termination buffer solution was added to terminate the experiment; • 5. The samples were analyzed using EZ reader.
(§3) The % inhibition was calculated using the following equation
(§4) The one treated with DMSO is the positive control (PC)
(§5) The one without enzyme is the negative control (NC)
(§6) % Inhibition=100-100*((CRPC−CRsample)/(CRPC−CRNC))

CDK4/CycD3 = CDK4/CycD3 (Homo sapiens, UniProt P11802); test: Enzyme activity test; format: biochemical;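 note: values come from the source column headed CDK4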
Chain of CDK4/CycD3 (P11802 whole entry, species assumed): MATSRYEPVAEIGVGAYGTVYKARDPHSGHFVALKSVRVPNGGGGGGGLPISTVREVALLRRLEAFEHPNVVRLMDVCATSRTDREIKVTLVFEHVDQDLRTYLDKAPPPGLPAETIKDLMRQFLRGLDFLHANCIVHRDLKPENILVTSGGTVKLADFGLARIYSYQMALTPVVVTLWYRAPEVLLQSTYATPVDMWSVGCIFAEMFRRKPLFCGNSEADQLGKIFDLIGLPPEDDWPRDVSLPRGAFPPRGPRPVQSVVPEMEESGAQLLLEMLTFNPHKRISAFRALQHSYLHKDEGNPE
Chain of CDK4/CycD3 (P30281 whole entry partner, species assumed): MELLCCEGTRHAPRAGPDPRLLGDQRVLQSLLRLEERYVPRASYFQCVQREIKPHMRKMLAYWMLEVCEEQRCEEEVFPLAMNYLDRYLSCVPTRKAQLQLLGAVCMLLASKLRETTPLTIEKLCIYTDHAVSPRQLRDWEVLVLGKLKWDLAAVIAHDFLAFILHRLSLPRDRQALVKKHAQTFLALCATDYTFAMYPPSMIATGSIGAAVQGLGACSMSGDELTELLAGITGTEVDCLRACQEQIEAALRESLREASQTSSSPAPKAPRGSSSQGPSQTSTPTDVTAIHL
Method: as §1, §2, §3, §4, §5, §6

CDK6/CycD1 = CDK6/CycD1 (Homo sapiens, UniProt Q00534); test: Enzyme activity test; format: biochemical;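 note: values come from the source column headed CDK6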
Chain of CDK6/CycD1 (Q00534 whole entry, species assumed): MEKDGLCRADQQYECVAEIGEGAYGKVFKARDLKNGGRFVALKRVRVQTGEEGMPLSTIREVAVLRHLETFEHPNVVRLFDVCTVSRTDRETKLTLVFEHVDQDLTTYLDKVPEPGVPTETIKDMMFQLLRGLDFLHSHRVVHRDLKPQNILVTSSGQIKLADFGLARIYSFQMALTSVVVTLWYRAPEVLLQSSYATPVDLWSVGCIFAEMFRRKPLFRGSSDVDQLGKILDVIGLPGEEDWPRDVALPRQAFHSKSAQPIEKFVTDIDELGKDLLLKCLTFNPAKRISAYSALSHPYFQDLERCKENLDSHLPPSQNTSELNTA
Chain of CDK6/CycD1 (P24385 whole entry partner, species assumed): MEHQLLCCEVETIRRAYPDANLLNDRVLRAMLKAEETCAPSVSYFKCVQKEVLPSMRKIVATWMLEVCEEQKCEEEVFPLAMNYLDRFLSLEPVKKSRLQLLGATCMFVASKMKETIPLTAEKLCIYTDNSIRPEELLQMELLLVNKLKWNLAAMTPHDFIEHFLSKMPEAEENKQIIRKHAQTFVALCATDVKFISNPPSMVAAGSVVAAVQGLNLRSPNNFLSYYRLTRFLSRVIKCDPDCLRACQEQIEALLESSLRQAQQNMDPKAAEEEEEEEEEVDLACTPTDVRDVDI
Method: as §1, §2, §3, §4, §5, §6

HCC1806 cells = test: Cell proliferation inhibition assay (MTT, 7 days); format: cell-based; conditions: Homo sapiens, HCC1806, 168 h, HCC1086 [sic], 7 days incubation
Method: (§7) MCF7, T47D, OVCAR3 and HCC1806 cells were inoculated in 96-well plates at 3000, 3000, 2500, and 2000 cells/well, respectively, and cultured overnight at 37° C., 5% C02 incubator.
(§8) 1. […] Then 2.5 μl of the stock solution was dissolved in 497.5 μl of DMSO-free medium, and then a 3-fold serial gradient dilution was performed with 0.1% DMSO medium for a total of 9 concentrations, and the concentrations of the compounds after dilution were as follows: • 10000 nM, 3333.33 nM, 1111.11 nM, 370.34 nM, 123.45 nM, 41.15 nM, 13.72 nM, 4.57 nM, and 1.52 nM. • b) After fully mixing, 20 μL of compound solutions were added into cell culture plates containing 80 μL of cells respectively, with 4 replicate wells for each concentration. • c) The cells were transferred to an incubator and incubated for 7 days, and exchanged with fresh culture medium containing the same concentration of compounds when incubated to day 4. 2. MTT assay • a) The cell culture plate was taken out and 10 μL of 5 mg/ml MTT was added to the hood. • b) The cell culture plate was put back into the incubator and continued to incubate for 3 hours. • c) The cell culture plate was taken out to remove the culture medium, and 100 μL of isopropanol (0.4 mMHCl, 0.4% NP40) was added to the plate, and the plate was shaken on a shaker at room temperature for 30 minutes and read at 570 nm. 3. Data analysis
(§9) The survival rate (% Cell Survival) was calculated using the following equation:
(§10) % Cell Survival=100%×(OD_Sample−OD_LCave)/(OD_HC−OD_LCave) • OD_HC: 0.1‰ cell readings of DMSO control • OD_Sample: cell readings of compound addition • OD_LC: readings of blank medium • Analyed by Prizm: Dose-response-Inhibition Log(inhibitor) vs response (three parameters for the best fit)
(§11) IC50 (nM) values were calculated by concentration-response curve fitting.

MCF7 cells = test: Cell proliferation inhibition assay (MTT, 7 days); format: cell-based; conditions: Homo sapiens, 168 h, 7 days incubation
Method: as §7, §8, §9, §10, §11

OVCAR3 cells = test: Cell proliferation inhibition assay (MTT, 7 days); format: cell-based; conditions: Homo sapiens, OVCAR-3, 168 h, 7 days incubation
Method: as §7, §8, §9, §10, §11

T47D cells = test: Cell proliferation inhibition assay (MTT, 7 days); format: cell-based; conditions: Homo sapiens, 168 h, 7 days incubation
Method: as §7, §8, §9, §10, §11

SMILES | IC50 (CDK2/CycE1) | IC50 (CDK4/CycD3) | IC50 (CDK6/CycD1) | IC50 (HCC1806 cells) | IC50 (MCF7 cells) | IC50 (OVCAR3 cells) | IC50 (T47D cells)
C[C@@]1(O)CCC[C@H]1n1c(=O)c(C2COC2)cc2cnc(NC3CCN(S(C)(=O)=O)CC3)nc21 [Example 1] | < 0.01 µM | 0.01 to 0.1 µM | 0.01 to 0.1 µM | – | – | – | –
C[C@@]1(O)CCC[C@H]1n1c(=O)c(OC(F)F)cc2cnc(NC3CCN(S(=O)(=O)c4ccc(C(F)(F)F)cc4)CC3)nc21 [Example 5] | < 0.01 µM | 0.01 to 0.1 µM | < 0.01 µM | 50 to 5200 nM | 50 to 5200 nM | 50 to 5200 nM | ≤ 50 nM
C[C@@]1(O)CCC[C@H]1n1c(=O)c(OC(F)F)cc2cnc(NC3CCN(S(=O)(=O)c4ccc(C#N)cc4)CC3)nc21 [Example 6] | < 0.01 µM | < 0.01 µM | < 0.01 µM | ≤ 50 nM | ≤ 50 nM | ≤ 50 nM | ≤ 50 nM
C[C@@]1(O)CCC[C@H]1n1c(=O)c(OC(F)F)cc2cnc(NC3CCN(S(=O)(=O)c4ccc(F)cc4F)CC3)nc21 [Example 7] | < 0.01 µM | < 0.01 µM | < 0.01 µM | 50 to 5200 nM | 50 to 5200 nM | 50 to 5200 nM | ≤ 50 nM
Cc1ccc(S(=O)(=O)N2CCC(Nc3ncc4cc(OC(F)F)c(=O)n([C@@H]5CCC[C@@]5(C)O)c4n3)CC2)cc1 [Example 8] | < 0.01 µM | 0.01 to 0.1 µM | < 0.01 µM | 50 to 5200 nM | 50 to 5200 nM | ≤ 50 nM | ≤ 50 nM
C[C@@]1(O)CCC[C@H]1n1c(=O)c(OC(F)F)cc2cnc(NC3CCN(S(=O)(=O)c4ccccc4C#N)CC3)nc21 [Example 9] | < 0.01 µM | < 0.01 µM | < 0.01 µM | 50 to 5200 nM | 50 to 5200 nM | ≤ 50 nM | 50 to 5200 nM
COc1cccc(S(=O)(=O)N2CCC(Nc3ncc4cc(OC(F)F)c(=O)n([C@@H]5CCC[C@@]5(C)O)c4n3)CC2)c1 [Example 10] | < 0.01 µM | < 0.01 µM | < 0.01 µM | 50 to 5200 nM | 50 to 5200 nM | ≤ 50 nM | ≤ 50 nM
C[C@@]1(O)CCC[C@H]1n1c(=O)c(OC(F)F)cc2cnc(NC3CCN(S(=O)(=O)c4ccc(S(C)(=O)=O)cc4)CC3)nc21 [Example 11] | < 0.01 µM | < 0.01 µM | < 0.01 µM | ≤ 50 nM | ≤ 50 nM | ≤ 50 nM | ≤ 50 nM
COc1ccccc1S(=O)(=O)N1CCC(Nc2ncc3cc(OC(F)F)c(=O)n([C@@H]4CCC[C@@]4(C)O)c3n2)CC1 [Example 14] | < 0.01 µM | 0.01 to 0.1 µM | < 0.01 µM | 50 to 5200 nM | 50 to 5200 nM | 50 to 5200 nM | ≤ 50 nM
C[C@@]1(O)CCC[C@H]1n1c(=O)c(OC(F)F)cc2cnc(NC3CCN(S(=O)(=O)c4cc(F)cc(F)c4)CC3)nc21 [Example 15] | < 0.01 µM | < 0.01 µM | < 0.01 µM | 50 to 5200 nM | 50 to 5200 nM | 50 to 5200 nM | 50 to 5200 nM
C[C@@]1(O)CCC[C@H]1n1c(=O)c(OC(F)F)cc2cnc(NC3CCN(S(=O)(=O)c4ccccc4)CC3)nc21 [Example 16] | < 0.01 µM | < 0.01 µM | < 0.01 µM | ≤ 50 nM | ≤ 50 nM | ≤ 50 nM | ≤ 50 nM
C[C@@]1(O)CCC[C@H]1n1c(=O)c(OC(F)F)cc2cnc(NC3CCN(S(=O)(=O)c4cccc(F)c4)CC3)nc21 [Example 17] | < 0.01 µM | < 0.01 µM | < 0.01 µM | ≤ 50 nM | ≤ 50 nM | ≤ 50 nM | ≤ 50 nM
C[C@@]1(O)CCC[C@H]1n1c(=O)c(OC(F)F)cc2cnc(NC3CCN(S(=O)(=O)c4ccc(F)c(F)c4)CC3)nc21 [Example 18] | < 0.01 µM | < 0.01 µM | < 0.01 µM | ≤ 50 nM | 50 to 5200 nM | ≤ 50 nM | ≤ 50 nM
CN(C)c1ccc(S(=O)(=O)N2CCC(Nc3ncc4cc(OC(F)F)c(=O)n([C@@H]5CCC[C@@]5(C)O)c4n3)CC2)cc1 [Example 22] | < 0.01 µM | 0.01 to 0.1 µM | < 0.01 µM | 50 to 5200 nM | 50 to 5200 nM | ≤ 50 nM | ≤ 50 nM
CC(C)(C)c1ccc(S(=O)(=O)N2CCC(Nc3ncc4cc(OC(F)F)c(=O)n([C@@H]5CCC[C@@]5(C)O)c4n3)CC2)cc1 [Example 23] | < 0.01 µM | 0.01 to 0.1 µM | 0.01 to 0.1 µM | 200 to 51000 nM | 50 to 5200 nM | 50 to 5200 nM | 50 to 5200 nM
COc1ccc(S(=O)(=O)N2CCC(Nc3ncc4cc(OC(F)F)c(=O)n([C@@H]5CCC[C@@]5(C)O)c4n3)CC2)cc1 [Example 24] | < 0.01 µM | < 0.01 µM | < 0.01 µM | ≤ 50 nM | ≤ 50 nM | ≤ 50 nM | ≤ 50 nM
C[C@@]1(O)CCC[C@H]1n1c(=O)c(OC(F)F)cc2cnc(NC3CCN(S(=O)(=O)c4ccccc4F)CC3)nc21 [Example 25] | < 0.01 µM | 0.01 to 0.1 µM | < 0.01 µM | 50 to 5200 nM | 50 to 5200 nM | ≤ 50 nM | ≤ 50 nM
CN1CCC(c2ccc(Nc3ncc4cc(OC(F)F)c(=O)n([C@@H]5CCC[C@@]5(C)O)c4n3)cc2)CC1 [Example 61] | 0.01 to 0.1 µM | < 0.01 µM | < 0.01 µM | – | – | – | –
C[C@@]1(O)CCC[C@H]1n1c(=O)c(OC(F)F)cc2cnc(NC3CCN(S(=O)(=O)N4CCOCC4)CC3)nc21 [Example 66] | < 0.01 µM | 0.01 to 0.1 µM | < 0.01 µM | 50 to 5200 nM | – | ≤ 50 nM | 50 to 5200 nM
CN([C@H]1CC[C@H](Nc2ncc3cc(OC(F)F)c(=O)n([C@@H]4CCC[C@@]4(C)O)c3n2)CC1)S(C)(=O)=O [Example 69] | < 0.01 µM | 0.01 to 0.1 µM | 0.01 to 0.1 µM | – | – | – | –
